Our source for the IC50 and melting point values is patent US9206130B2, “Quinoline derivatives as AXL kinase inhibitors” (Max-Planck-Gesellschaft zur Förderung der Wissenschaften …, priority 2008, dated 2015).

Molecules are shown by their SMILES. Bounds are passed on as bounds.

Data set [1] deals with T1, wild type AXL (wtAXL) receptor tyrosine kinase (Homo sapiens, UniProt P30530).
T1 construct: WtAXL cDNA was cloned into vector pLXSN(ESK) and transfected into Phoenix E packaging cells; expressed in transfected cells; host or cells: NIH3T3 N7 mouse fibroblasts, retrovirally infected (clone 22)
T1 sequence (P30530 26-894): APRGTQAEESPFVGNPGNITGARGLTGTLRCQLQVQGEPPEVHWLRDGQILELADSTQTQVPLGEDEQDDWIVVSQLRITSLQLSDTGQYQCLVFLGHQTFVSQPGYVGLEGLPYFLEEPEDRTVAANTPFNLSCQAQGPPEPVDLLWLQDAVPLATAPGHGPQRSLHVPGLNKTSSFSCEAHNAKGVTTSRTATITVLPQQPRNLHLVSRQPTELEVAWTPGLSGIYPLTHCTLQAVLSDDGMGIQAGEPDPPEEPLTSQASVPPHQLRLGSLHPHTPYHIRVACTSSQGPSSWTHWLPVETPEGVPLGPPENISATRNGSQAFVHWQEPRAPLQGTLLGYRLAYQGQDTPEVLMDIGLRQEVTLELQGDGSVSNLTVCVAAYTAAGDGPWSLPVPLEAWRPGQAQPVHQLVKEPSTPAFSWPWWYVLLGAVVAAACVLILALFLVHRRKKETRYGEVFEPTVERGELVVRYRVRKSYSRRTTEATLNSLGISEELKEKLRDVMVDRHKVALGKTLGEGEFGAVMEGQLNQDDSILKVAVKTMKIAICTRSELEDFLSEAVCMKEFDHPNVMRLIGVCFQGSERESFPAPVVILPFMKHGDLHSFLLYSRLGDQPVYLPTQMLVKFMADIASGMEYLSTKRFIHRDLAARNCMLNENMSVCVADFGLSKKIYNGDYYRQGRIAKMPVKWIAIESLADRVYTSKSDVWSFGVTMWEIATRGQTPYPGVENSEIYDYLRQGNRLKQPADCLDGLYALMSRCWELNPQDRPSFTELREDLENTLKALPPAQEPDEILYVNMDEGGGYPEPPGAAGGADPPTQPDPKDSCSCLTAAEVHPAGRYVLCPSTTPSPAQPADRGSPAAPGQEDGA
Briefly: NIH-3T3-AXL cellular tyrosine kinase assay (inhibition of AXL phosphorylation). In kind it is cell-based. As to conditions: AXL phosphorylation in NIH-3T3-AXL (clone 22) cells, serum-depleted, 2 h with compound, immunoprecipitation / anti-phosphotyrosine blot. In short, it runs like this:
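NIH3T3 clones stably expressing human wtAXL (puromycin-selected) were exposed to serially diluted compounds for 2 h. AXL was immunoprecipitated from lysates with anti-AXL antibody, and phosphorylation detected by anti-phosphotyrosine (4G10) western blot with ECL.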

`COc1cc2c(Oc3ccc(NS(=O)(=O)c4ccccc4F)cc3F)ccnc2cc1OCCCN1CCCC(C)C1` (stereo not shown) [Example D30, 2-Fluoro-N-(3-fluoro-4-{6-methoxy-7-[3-(3-methyl-piperidin-1-yl)-propoxy]-quinolin-4-yloxy}-phenyl)-benzenesulfonamide]: the melting point (usually the temperature of the solid-liquid transition) is 102 to 106 °C. Moreover, the IC50 (in general, the midpoint of a concentration-inhibition curve) in data set [1] stood at 82 nM.

`Cc1cc(Oc2ccc(NS(=O)(=O)c3ccc(OCc4c(C)noc4C)cc3)cc2F)c2cccc(C(F)(F)F)c2n1` [Example C14, 4-(3,5-Dimethyl-isoxazol-4-ylmethoxy)-N-[3-fluoro-4-(2-methyl-8-trifluoromethyl-quinolin-4-yloxy)-phenyl]-benzenesulfonamide] registered a melting point of 193 to 195 °C. Further, the IC50 in data set [1] is above 10000 nM.

Regarding `COc1cc2nccc(Oc3ccc(NS(=O)(=O)c4ccc(F)c(F)c4)c(F)c3)c2cc1OC` [Example A3, N-[4-(6,7-Dimethoxy-quinolin-4-yloxy)-2-fluoro-phenyl]-3,4-difluoro-benzenesulfonamide], the melting point fell in the range of 217 to 219 °C. In addition, the IC50 in data set [1] was 3400 nM.

Compound `COc1cc2c(Oc3ccc(NS(=O)(=O)c4ccc(OC)c5ccccc45)cc3F)ccnc2cc1OCCN1CCOCC1` [Example D13, 4-Methoxy-naphthalene-1-sulfonic acid {3-fluoro-4-[6-methoxy-7-(2-morpholin-4-yl-ethoxy)-quinolin-4-yloxy]-phenyl}-amide] returned a melting point of 189 to 190 °C. Also, the IC50 in data set [1] was 57 nM.

As to `COc1cc(C)c(C)cc1S(=O)(=O)Nc1ccc(Oc2cc(C)nc3c(C(F)(F)F)cccc23)c(F)c1` [Example C10, N-[3-Fluoro-4-(2-methyl-8-trifluoromethyl-quinolin-4-yloxy)-phenyl]-2-methoxy-4,5-dimethyl-benzenesulfonamide], the melting point fell in the range of 230 to 232 °C. Besides, the IC50 in data set [1] is above 10000 nM.

Regarding `Cc1cc(Oc2ccc(NS(=O)(=O)c3cc(Cl)cc(Cl)c3)c(F)c2)c2cccc(C(F)(F)F)c2n1` [Example C01, 3,5-Dichloro-N-[2-fluoro-4-(2-methyl-8-trifluoromethyl-quinolin-4-yloxy)-phenyl]-benzenesulfonamide], the melting point fell in the range of 181 to 183 °C. For the same compound, the IC50 in data set [1] was above 10000 nM.

As to `COc1cc2nccc(Oc3ccc(NS(=O)(=O)c4ccc(Br)c(Cl)c4)cc3)c2cc1OC` [Example A117, 4-Bromo-3-chloro-N-[4-(6,7-dimethoxy-quinolin-4-yloxy)-phenyl]-benzenesulfonamide], the melting point was in the range of 232 to 234 °C. Moreover, the half-inhibitory concentration (IC50) in data set [1] was above 10000 nM.

In turn, `COc1cc2nccc(Oc3ccc(NS(=O)(=O)c4ccccc4OC(F)(F)F)cc3C)c2cc1OC` [Example A129, N-[4-(6,7-Dimethoxy-quinolin-4-yloxy)-3-methyl-phenyl]-2-trifluoromethoxy-benzenesulfonamide] registered a melting point of 207 to 209 °C. The IC50 in data set [1] was above 3000 nM.

`COc1cc2nccc(Oc3ccc(NS(=O)(=O)c4c(F)cccc4F)c(F)c3)c2cc1OC` [Example A14, N-[4-(6,7-Dimethoxy-quinolin-4-yloxy)-2-fluoro-phenyl]-2,6-difluoro-benzenesulfonamide] came in with a melting point of 223 to 225 °C. In addition, the IC50 in data set [1] turned out to be 1400 nM.

The compound `COc1cc2nccc(Oc3ccc(NS(=O)(=O)c4cccc(Cl)c4)c(F)c3)c2cc1OC` [Example A25, 3-Chloro-N-[4-(6,7-dimethoxy-quinolin-4-yloxy)-2-fluoro-phenyl]-benzenesulfonamide] had a melting point of 250 to 251 °C. Besides, the half-maximal inhibitory concentration (IC50) in data set [1] came to 2380 nM.

`COc1cc2nccc(Oc3ccc(NS(=O)(=O)c4ccccc4OC)c(F)c3)c2cc1OC` [Example A52, N-[4-(6,7-Dimethoxy-quinolin-4-yloxy)-2-fluoro-phenyl]-2-methoxy-benzenesulfonamide]: the melting point is 213 to 215 °C. In data set [1], the IC50 was above 3000 nM.
